Where a name gives a salt, the structure may show the parent alone.
Legend:
IDO1 [1] = target: T1, IDO1 (Homo sapiens, UniProt P14902); test: IDO1 Human Whole Blood Assay; format: cell-based; details: LPS and IFNγ 100 ng/mL, 18 h, kynurenine by LC/MS/MS
Procedure: IDO1 Human Whole Blood Assay
Compounds to be tested were serially diluted in ten 3-fold steps in DMSO starting from 10 mM. 3 μL of compound dilutions or DMSO alone were then dispensed from the dilution plate into a polypropylene 96-well assay plate containing 97 μL of RPMI medium using an Echo 555 acoustic liquid handler (Labcyte). LPS and IFNγ was prepared in RPMI medium to a 10× of final conc. (1000 ng/mL), final concentration is 100 ng/mL.
Two hundred forty μL of blood was transferred to each of the wells of a v-bottom 96 well plate. Thirty μL of compound was transferred from intermediate dilution plate, and incubated for 15 min. Thirty μL from stimulants was then transferred to blood and mixed thoroughly. Plate was covered with breathable membrane and incubated at 37° C. for overnight (18 h).
On day 2 isotope labeled standard of kynurenine and tryptophan was made in water at 10× concentration and 30 μL was added to the blood at 3 μM final concentration. The assay plates were centrifuged at 300×G for 10 min with no brake to separate plasma from red blood cells. Sixty μL of plasma samples was removed without disturbing red blood cells. Plasma was diluted with RPMI in 1:1 ratio and proteins were precipitated out with two volume of acetonitrile. The plates were centrifuged at 4000×G for 60 min. Twenty μL of supernatant was carefully transferred to a 384 well plate containing 40 μL of 0.1% formic acid in water and analyzed by LC/MS/MS.
LC/MS/MS analyses were performed using Thermo Fisher's LX4-TSQ Quantum Ultra system. This system consists of four Agilent binary high-performance liquid chromatography (HPLC) pumps and a TSQ Quantum Ultra triple quadruple MS/MS instrument. For each sample, 5 μL were injected onto an Atlantis T3 column (2.1 mm×150 mm, 3 μm particle size) from Waters. The mobile phase gradient pumped at 0.8 mL/min was used to elute the analytes from the column at 25° C. […] Compounds were titrated and IC50's were calculated by 4 parameter sigmoidal curve fitting formula. […]

IDO1 [2] = target: T1, IDO1; test: IDO1 Cellular Assay in Hela Cells Stimulated with IFNγ; format: cell-based; set-up: endogenous in cells; host or cells: HeLa cells stimulated with IFNγ; details: IFNγ 100 ng/mL, 300 uM L-tryptophan, about 48 hours, fluorescence readout, read-out: IDO1 HELA Cell Assay, IC50
Procedure: Biological Assays IDO1 Cellular Assay in Hela Cells Stimulated with IFNγ
Hela cells were cultured in complete Hela culture medium (90% EMEM, 10% heat-inactivated fetal bovine serum) and expanded to about 1×10^9 cells. The cells were then collected and frozen down at 1×10^7 cells/vial in 1 mL frozen medium (90% complete Hela culture medium, 10% DMSO)
Compounds to be tested were serially diluted in ten 3-fold steps in DMSO starting from 10 mM DMSO stocks in Echo low volume plate(s). Compound dilutions or DMSO alone were then dispensed from the dilution plate(s) into Greiner black 384-well assay plate(s) (catalog #781086, 50 nL/well) using an Echo 550 acoustic liquid handler (Labcyte).
Frozen Hela cells were thawed and transferred into Hela assay medium (99% complete Hela culture medium, 1% Pen/Strep) with 20 mL medium/vial of cells. The cells were spun down at 250 g in a table top centrifuge for 5 min and suspended in same volume of Hela assay medium. The cells were then counted and adjusted to a density of 2×10^5 cells/ml in Hela assay medium. Sterile L-tryptophan were added to the cells with final concentration of 300 uM L-tryptophan. A small aliquot (2 mL/plate) of Hela cells were set aside and were not treated with IFNγ, to serve as the Max-E control. The rest of Hela cells were added with sterile IFNγ (Cat #285-IF, R & D systems) with a final concentration of 100 ng/mL.
Hela cells with and without IFNγ were dispensed to the respective wells of 384-well assay plates containing the compounds. The plates were incubated for about 48 hours at a 37° C., 5% CO2 incubator. Afterwards, 12 μL of 0.5 M methyl isonipecotate in dimethyl sulfoxide were added into each well and the plates were sealed and incubated at 37° C. without CO2 overnight. The plates were centrifuged for 1 min at 200×g. The resulting fluorescence was measured in a Spectramax plate reader (Molecular Devices) with a 400 nm excitation filter and a 510 nm emission filter.
The fluorescence intensity of each well was corrected for the background observed in wells with non-IFNγ-treated cells and was expressed as a fraction of the intensity observed in wells of IFNγ-treated cells and DMSO only. Potencies were calculated by linear least squares fit to the four parameter logistic IC50 equation.
Compounds disclosed herein generally have IC50 of about 1 nM to about 1,000 nM, or more specifically, about 2 nM to about 800 nM, or more specifically, about 5 nM to about 600 nM, or still more specifically, about 10 nM to about 500 nM. Such a result is indicative of the intrinsic activity of the compounds in use as an inhibitor of an IDO enzyme.

T1 sequence (P14902 whole entry): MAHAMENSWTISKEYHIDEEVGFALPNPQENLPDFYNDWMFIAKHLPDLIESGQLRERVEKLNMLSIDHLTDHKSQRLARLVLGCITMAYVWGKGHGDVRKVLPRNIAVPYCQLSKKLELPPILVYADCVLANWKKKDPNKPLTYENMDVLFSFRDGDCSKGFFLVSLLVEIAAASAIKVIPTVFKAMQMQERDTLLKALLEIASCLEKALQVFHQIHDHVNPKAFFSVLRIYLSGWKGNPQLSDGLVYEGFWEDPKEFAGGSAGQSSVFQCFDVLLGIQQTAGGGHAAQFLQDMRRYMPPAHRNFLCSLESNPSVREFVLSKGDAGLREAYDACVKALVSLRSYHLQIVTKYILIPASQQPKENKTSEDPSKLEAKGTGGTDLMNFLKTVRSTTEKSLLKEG

CC(C(=O)Nc1ccc(F)cc1)C12CC(Nc3ncnc4ccccc34)(C1)C2 (single isomer, unassigned) [Example 5, N-(4-fluorophenyl)-2-(3-(quinazolin-4-ylamino)bicyclo[1.1.1]pentan-1-yl)propanamide]
IC50 (IDO1 [1]): 543 nM
IC50 (IDO1 [2]): 5.38 nM

CC(C(=O)Nc1ccc(F)cc1)C12CC(Nc3ncnc4ccc(F)cc34)(C1)C2 (single isomer, unassigned) [Example 11, N-(4-fluorophenyl)-2-(3-((6-fluoroquinazolin-4-yl)amino)bicyclo[1.1.1]pentan-1-yl)propanamide]
IC50 (IDO1 [1]): 378 nM
IC50 (IDO1 [2]): 3.23 nM

C[C@H](C(=O)Nc1ccc(F)cc1)C12CC(N(C)Cc3cccc(Cl)c3)(C1)C2 [Example 29, (S)-2-(3-((3-chlorobenzyl)(methyl)amino)bicyclo[1.1.1]pentan-1-yl)-N-(4-fluorophenyl)propanamide, TFA]
IC50 (IDO1 [1]): 625 nM
IC50 (IDO1 [2]): 5.6 nM

C[C@H](C(=O)Nc1ccc(F)cc1)C12CC(N(C)Cc3ccc(Cl)c(Cl)c3)(C1)C2 [Example 33, (S)-2-(3-((3,4-dichlorobenzyl)(methyl)amino)bicyclo[1.1.1]pentan-1-yl)-N-(4-fluorophenyl)propanamide, TFA]
IC50 (IDO1 [2]): 8.86 nM

From patent US11352320B2 (Merck Sharp & Dohme Corp., priority 2018, dated 2022)
